Entries after “also recorded” stand apart in the source; their conditions may differ. Where two headings read alike, the source gives them in different places.
Columns and labels:
Assay type in all cases: biochemical
[1] = target: T1, protease according SEQ ID No: 1 (Lederbergia lenta, UniProt P29599, R99E); conditions: for protease activity: 2.3% (w/w) diol, 4.4 μM 4-FPBA, 4.8 mM Suc-AAPF-pNA, 16 nM protease, pH 7.5, activity with 4-FPBA only = 100%
Method: (§1) Proteolytic activity of proteases has been measured using succinyl-Ala-Ala-Pro-Phe-p-nitroanilide (Suc-AAPF-pNA, short AAPF) as substrate, wherein pNA is cleaved from the substrate molecule by proteolytic cleavage, resulting in release of yellow color of free pNA which was quantified by measuring OD405.
(§2) If not indicated otherwise, enzymatic activity was measured at 30° C.
50 mM phosphate buffer (pH 7.5), 4.4 μM 4-FPBA, 4.8 mM Suc-AAPF-pNA, and 16 nM protease according SEQ ID No: 1 with 2.3% w/w diol or without diol.
The protease activity was measured in presence of the Suc-AAPF-pNA substrate and the 4-FPBA only, which gives the 100% value in Table A.
The protease activity was also measured in the presence of AAPF-pNA substrate, 4-FPBA and 2.3% diol.

[2] = target: T1, protease according SEQ ID No: 1; conditions: for protease activity: activity without BBA and diol = 100%
Method: as §1, §2
50 mM phosphate buffer (pH 7.5), 137 μM BBA, 4.8 mM Suc-AAPF-pNA, and 16 nM protease according SEQ ID No: 1 with 135 mM diol or without diol.
The protease activity was measured in presence of the Suc-AAPF-pNA substrate and in the absence of BBA and diol, which gives the 100% value in Table B.
The protease activity was measured in presence of the Suc-AAPF-pNA substrate and BBA, which gives the stabilization of protease by BBA—see Table C-I.
The protease activity was then measured in presence of the Suc-AAPF-pNA substrate and diol (without BBA), which gives the stabilization of protease by diol—see Table C-II.
The protease activity was then measured in presence of the Suc-AAPF-pNA substrate and BBA and diol, which gives the stabilization of protease by BBA and diol—see Table C-III.

[3] = target: protease according to SEQ ID No: 1 (Lederbergia lenta, UniProt P29599, R99E); experiment: Storage stability of protease at 45° C. with diol alone (proteolytic activity, Suc-AAPF-pNA); conditions: no boron compound; for stabilization of protease by diol alone during storage (in words): storage at 45° C., 20-50% w/w diol
Method: as §1
To test the effect of diol alone towards the storage stability of proteases, a protease according to SEQ ID No: 1 was stored at 45° C. with varying concentrations of Propane-1,2-diol and Pentane-1,2-diol as indicated in Table B. 4% active protease according to SEQ ID No: 1 was present before storage for the assessment of its changes in proteolytic activity during storage.
Proteolytic activity was measured in the presence of 4.8 mM Sus-AAPF-pNa. As buffering system 50 mM phosphate buffer was used (pH 7.5). Before storage (time=0), the protease activity measured was set 100%.

[4] = target: T1, protease according SEQ ID No: 1; experiment: Mixtures of diols with 4-FPBA: protease activity (Suc-AAPF-pNA)
Method: as §1, §2
50 mM phosphate buffer (pH 7.5), 4.4 μM 4-FPBA, 4.8 mM Suc-AAPF-pNA, and 16 nM protease according SEQ ID No: 1 with one or two diols.
The protease activity was measured in presence of the Suc-AAPF-pNA substrate and 4-FPBA and one or two diols, which gives the stabilization of protease by 4-FPBA and one or two diols—see Table D.
The protease activity in presence of the Suc-AAPF-pNA substrate and 4-FPBA only is set 100%.

T1 sequence (P29599 whole entry R99E): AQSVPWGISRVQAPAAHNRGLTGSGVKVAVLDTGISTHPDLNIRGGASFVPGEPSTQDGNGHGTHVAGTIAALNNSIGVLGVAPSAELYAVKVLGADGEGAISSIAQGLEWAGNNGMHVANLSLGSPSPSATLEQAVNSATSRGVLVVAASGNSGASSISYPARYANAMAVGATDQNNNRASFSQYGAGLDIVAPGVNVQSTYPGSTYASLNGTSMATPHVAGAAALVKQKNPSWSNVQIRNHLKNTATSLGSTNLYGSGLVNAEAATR
Chain of protease according to SEQ ID No: 1 (P29599 whole entry R99E): as above

Compound: CCCC(O)CO (centres unmarked) [Pentane-1,2-diol, pentane-1,2-diol]
- inhibitory effect towards proteolytic activity (in words) ([1]; diol added to 4-FPBA, compared to the other diols used): strong inhibitory effect
- stabilization of protease by diol in the presence of BBA (in words) ([2]; 135 mM diol with 137 μM BBA): best increasing effect on stabilization of protease; also recorded: synergistic stabilization
- inhibitory effect towards proteolytic activity (in words) ([2]; diol alone (135 mM, without BBA), of the diols tested): best inhibitory effect
- stabilization of protease by diol alone during storage (in words) [3]: does not stabilize the protease, but rather destabilizes the protease
- stabilization of protease in the presence of 4-FPBA (in words) ([4]; of the diols tested, with 4-FPBA): stabilizes protease best

Compound: CC(O)CO (centres unmarked) [Propane-1,2-diol, propane-1,2-diol]
- protease activity [1]: 91%
- protease activity ([2]; 135 mM diol with 137 μM BBA): 40%
- protease activity ([2]; 135 mM diol, without BBA): 94%
- proteolytic activity before and after storage ([3]; 20% w/w diol, 1 day at 45° C.): 82%
- proteolytic activity before and after storage ([3]; 20% w/w diol, 3 days at 45° C.): 64%
- proteolytic activity before and after storage ([3]; 20% w/w diol, 7 days at 45° C.): 46%
- proteolytic activity before and after storage ([3]; 20% w/w diol, 14 days at 45° C.): 30%
- proteolytic activity before and after storage ([3]; 20% w/w diol, cero (before storage, set 100%)): 100%
- proteolytic activity before and after storage ([3]; 30% w/w diol, 1 day at 45° C.): 92%
- proteolytic activity before and after storage ([3]; 30% w/w diol, 3 days at 45° C.): 80%
- proteolytic activity before and after storage ([3]; 30% w/w diol, 7 days at 45° C.): 62%
- proteolytic activity before and after storage ([3]; 30% w/w diol, 14 days at 45° C.): 47%
- proteolytic activity before and after storage ([3]; 30% w/w diol, cero (before storage, set 100%)): 100%
- proteolytic activity before and after storage ([3]; 50% w/w diol, 1 day at 45° C.): 94%
- proteolytic activity before and after storage ([3]; 50% w/w diol, 3 days at 45° C.): 92%
- proteolytic activity before and after storage ([3]; 50% w/w diol, 7 days at 45° C.): 79%
- proteolytic activity before and after storage ([3]; 50% w/w diol, 14 days at 45° C.): 66%
- proteolytic activity before and after storage ([3]; 50% w/w diol, cero (before storage, set 100%)): 100%
- stabilization of protease by diol alone during storage (in words) [3]: stabilize the protease increasingly
- protease activity ([4]; Propane-1,2-diol 120 mM, Pentane-1,2-diol 0 mM, 4.4 μM 4-FPBA, 4-FPBA only = 100%): 91%

Compound: benzene boronic acid [BBA]
- protease activity ([2]; 137 μM BBA, no diol): 66%

Compound: OCCO [Ethylen-1,2-glycol, ethane-1,2-diol]
- protease activity [1]: 54%
- protease activity ([2]; 135 mM diol with 137 μM BBA): 43%
- protease activity ([2]; 135 mM diol, without BBA): 97%

Reference: patent US20190292494A1, “STABILIZATION OF ENZYMES IN COMPOSITIONS” (BASF SE, priority 2016, published 2019)
